PubChem BioAssay AID1626 (SRMLSC, 2009)

Test system: M. tuberculosis H37Rv growth inhibition
Experiment: M. tuberculosis H37Rv growth inhibitors, H37Rv strain (AID 1626)
Conditions: for IC90: measured here: IC90 against H37Rv; for CC50: measured here: Vero cell cytotoxicity

SMILES | IC90 [µM] | CC50 [µM] | IC50 [µM]
CC(C)C(=O)N1CCN(c2ccc(NC(=O)c3ccc4c(c3)OCCO4)cc2Cl)CC1 | > 100 | 19.8 | 
CC(C)COCC(CN(Cc1ccccc1)c1ccccc1)N1CCCC1 (stereo not given) | 20.1 | > 40 | 14.8
O=C(/C=C/c1ccccc1)Oc1cccc2cccnc12 | 9.54 | 37.2 | 7.94
COC(=O)CSc1ccc(C#N)c(SCC(=O)OC)c1 | 10.4 |  | 3.27
Cc1c(C(=O)Nc2nc3ccccc3[nH]2)oc2ccccc12 | 4.5 | > 40 | 1.29
COc1ccc(N/C=C/C(=O)c2ccc(Cl)cc2)cc1 |  | > 40 | 
COc1c(N2CCNC(C)C2)c(F)cc2c(=O)c(C(=O)O)cn(C3CC3)c12 (stereo not given) | < 0.195 |  | < 0.195
O=C(Oc1ccc(Cl)cc1)c1ccc(COC(=O)c2cnccn2)cc1 | 9.41 | > 40 | 6.54
Cc1ccc(SC/C(O)=C(\C#N)c2nc3ccccc3n2C)cc1 |  | > 40 | 
Cc1sc(N)nc1-c1ccccc1 | > 100 |  | 
c1ccc(CN2CCN(c3nc(-c4ccccc4)nc(-n4ccnc4)n3)CC2)cc1 | 2.2 | > 40 | 1.5
O=C(Cn1cnc2c(nnn2-c2ccccc2)c1=O)N1CCC(Cc2ccccc2)CC1 | 6.58 | > 40 | 5.79
Cc1ccc(-c2nnc3sc(C4COc5ccccc5O4)nn23)cc1 (stereo not given) | > 100 |  | 4.77
COc1cc(/C=C/C(=O)c2ccc(F)cc2)cc(OC)c1OC | 7.36 | 21.1 | 4.93
Cn1nc(-c2ccc(Cl)cc2)c2cc(C(=O)N3CCN(c4ccccn4)CC3)sc21 | 4.36 | > 40 | 2.49
S=c1[nH]c2ccc3ccccc3c2[nH]1 | > 100 | > 40 | 23.7
CCc1ccc(C(=O)CSC2=C(C#N)C(c3ccco3)C(C(C)=O)=C(C)N2)cc1 (stereo not given) | 23.3 | > 40 | 7.81
Nc1nc(Cl)cc(N2CCC(c3cc(-c4ccc(Cl)cc4)n[nH]3)CC2)n1 | > 100 | 13.6 | 77.9
O=C(Nc1nc(NC(=O)c2ccco2)n(-c2ccccc2)n1)c1ccccc1 | 6.79 | 8.86 | 2.65
Cc1ccc(C2CC(C(F)(F)F)n3ncc(C(=O)NCc4ccco4)c3N2)cc1 (stereo not given) | 3.64 |  | < 0.195
O=C(OCc1nc2ccccc2s1)c1ccc(Br)o1 | > 100 |  | 12.7

SMILES | IC90 [µM] | CC50 [µM] | IC50 [µM]
Cc1cc(Cl)cc(C)c1OCCCCn1ccnc1 | 12.7 | > 40 | 9.33
COCCCN=C1NN=C(c2cc(C)n(Cc3ccccc3Cl)c2C)CS1 | 12.1 | 16.3 | 11.3
Cc1ccc2nc(/C(C#N)=C\c3ccc([N+](=O)[O-])o3)[nH]c2c1 | < 0.195 | 3.11 | < 0.195
CCOC(=O)CN(C#N)c1nc(N(C)C)nc(N(C)C)n1 | 11.7 |  | 9.34
Fc1ccc(Oc2nc(-c3ccccn3)nc3ccccc23)cc1 | 11.2 | > 40 | 1.96
Cc1ccc2nc(SCC(=O)Nc3ccc4c(c3)CCC4)[nH]c2c1 | > 100 |  | 
CC(C)=CCOc1ccc([C@@H]2COc3c(ccc4c3C=CC(C)(C)O4)C2)c(O)c1 | 60.9 | > 40 | 19.4
CCOC(=O)c1ccc(NC(=O)C2C3CCC(C3)C2C(=O)O)cc1 (stereo not given) | > 100 |  | 
O=C(Nc1ncc(Cc2ccccc2Cl)s1)C1=NCCN1 | 10.3 | > 40 | 3.75
COc1cccc(C(=O)/C=C/c2ccc(OCC#N)c(OC)c2)c1 | > 100 | 12.4 | 19.8
O=C(Nc1nnc(SCc2ccc(F)cc2)s1)c1cnccn1 | > 100 | > 40 | 15.6
Cc1ccc(NC(=O)c2sc3nc(C)nc(N4CCN(c5ccccn5)CC4)c3c2C)c(C)c1 | > 100 |  | 10.7
COc1ccc(CNC[C@@H](CCCCN(C)Cc2ccc(OC)cc2)N2C[C@H](c3ccccc3)N(CCc3ccc(Cl)c(Cl)c3)C(=O)C2=O)cc1 | 19.2 | 11.5 | 12.2
CCOC(=O)c1ccc(NC(=O)Cc2coc3cc4c(cc23)CCC4)cc1 | > 100 | > 40 | 6.36
COC(=O)CCCn1c(C)cc(C(=O)CCl)c1C | 18.4 | 21.1 | 5.45
COc1ccc(C2(CNC(=O)c3cc([N+](=O)[O-])cc([N+](=O)[O-])c3)CCCC2)cc1OC | 0.686 |  | < 0.195
Cc1ccc(C(=O)CNc2ccc(C)c(Cl)c2)cc1 | > 100 |  | 
CCc1ccccc1NC(=O)c1ccc([N+](=O)[O-])s1 | > 100 | > 40 | 
Cc1ccc(NC(=O)COC(=O)CC2CCCC2)cc1Cl | > 100 |  | 
COc1ccc(CNc2ncnc3cc(Cl)ccc23)cc1 | > 100 |  | 58.5
CCOc1ccc(NC(=O)NC23CC4CC(CC(C4)C2)C3)cc1 | > 100 |  | 2.58

SMILES | IC90 [µM] | CC50 [µM] | IC50 [µM]
COc1ccc(NC(=O)c2ccc(OC(F)F)cc2)cc1Cl | > 100 |  | 20.7
CCOC(=O)c1ccc(NC(=O)c2n[nH]c(=O)c3ccccc23)cc1 | > 100 |  | 
Nc1nnc(Sc2ncccc2[N+](=O)[O-])s1 | 12.9 |  | 9.58
O=C(/C=C/c1ccc([N+](=O)[O-])s1)N1CCCCC1 | 10.6 | > 40 | 6.4
O=C(Nc1nnc(-c2cccs2)o1)c1cccc(C(F)(F)F)c1 | 11.9 | 20.6 | < 0.391
O=c1c2ccccc2c(C=NC2CCN(Cc3ccccc3)CC2)c(O)n1Cc1ccc2c(c1)OCO2 | 12.2 | > 40 | 6.36
COc1ccc(N/C=C2\CCOC2=O)cc1 | > 100 |  | 
O=C(Oc1ccc(/C=N/O)cc1)c1ccccc1Cl | > 100 |  | 28.5
CCOC(=O)CNC(=O)CSc1ncnc2c1nnn2-c1ccc(F)cc1 | > 100 |  | 
c1ccc(CN2CCC(N=C3NN=C(c4ccc5c(c4)OCCO5)CS3)CC2)cc1 | 21.6 | > 40 | 18.2
CC[C@H](CO)NCCN[C@H](CC)CO | > 100 |  | 0.778
C=C1C2(C(=O)Nc3ccc(SC(F)F)cc3)CCC(C2)C1(C)C (stereo not given) | > 100 |  | 
CCOC(=O)c1ccc(NC(=O)CSC2=NC(=O)C(CC)C(=O)N2)cc1 (stereo not given) | > 100 |  | 24.3
CN1/C(=C/C(=O)c2nc(S(C)(=O)=O)ncc2Cl)C(C)(C)c2ccccc21 | 13.7 | > 40 | 12
Cc1cc(N2CCC(C)CC2)nc(-n2nc(C)cc2C)n1 | > 100 | 16.5 | 3.18
CS(=O)(=O)Cc1nc2ccccc2oc1=O | 2.01 | > 40 | 1.45
COc1ccc(C)cc1N=Nc1ccc(O)c2ncccc12 | > 100 | 2.01 | 31.8
CC(C)OC(=O)c1ccc(N)cc1 | > 100 |  | 30.1
Cc1nc(Nc2ccc(Cl)c(Cl)c2)sc1C(=O)Nc1ccccc1 | 38 | 20.9 | 14.4
CCc1ccc2[nH]c(O)c(N=Nc3nc(-c4ccccc4)cs3)c2c1 | 3.44 | 37 | 1.81
Cc1ccc(NC(=O)c2ccc([N+](=O)[O-])o2)c(C)c1 | 11.2 | 13.4 | 6.59

SMILES | IC90 [µM] | CC50 [µM] | IC50 [µM]
O=[N+]([O-])c1ccc(Sc2nc3ccccc3o2)c([N+](=O)[O-])c1 | 5.16 | 8.69 | 3.69
Cc1cc(NC(=O)c2ccc(C)s2)n(-c2nc3ccccc3[nH]2)n1 |  | > 40 | 
Cc1[nH][nH]c(=O)c1C(c1ccc(-c2ccc(Cl)cc2)o1)c1c(C)[nH][nH]c1=O | 17 | > 40 | 3.69
COc1ccc(CCNC(=O)NC23CC4CC(CC(C4)C2)C3)cc1 | > 100 | > 40 | 12.9
Cc1nc2c(-c3ccc(Cl)cc3)c(C)[nH]n2c(=O)c1Cc1ccccc1 | 9.69 | 4.04 | 1.98
COc1ccc(Oc2ccc(N/C=C/C(=O)C(C)(C)C)cc2)cc1 | > 100 |  | 75
COc1ccc(C2NCCc3c2[nH]c2ccccc32)cc1COc1ccc(F)cc1 (stereo not given) | 3.39 | 12.1 | 3.11
O=C1C2C(c3ccccc3)(C(=O)N1c1ccc(Cl)cc1)C2(c1ccccc1)c1ccccc1 (stereo not given) | > 100 | > 40 | 22.4
c1ccc2c(-c3nc(C4CCCCC4)no3)cc(-c3ccncc3)nc2c1 | 10.9 | > 40 | 7
COc1ccc(N2Cc3ccccc3C2)cc1Cl | > 100 |  | 
O=c1nc2c(O)cccn2c2c1c(=O)[nH]c1ccccc12 | 12.4 |  | 6.69
Nc1ccc(OCc2ccco2)cc1 | > 100 |  | 5.19
CCOC(=O)c1ccc(NC(=O)CCc2nc(-c3cccc(C)c3)no2)cc1 | > 100 |  | 2.76
O=C1N=C(N2CCOCC2)S/C1=C/c1ccc(-c2ccc(F)cc2)o1 | > 100 |  | 
O=C(c1nnsc1S(=O)c1ccc(Cl)cc1)N1CCOCC1 (stereo not given) | 10.8 | 14.4 | 8.91
Cn1c(O)c(C=Nc2ccc3c(c2)CCC3)c(=O)n(C)c1=O | > 100 |  | 
Cc1ccccc1-n1ncc2c([N+](=O)[O-])cc([N+](=O)[O-])cc21 | 4.48 | > 40 | 2.97
CN(C)CCNC=C(C(=O)Nc1ccc(Cl)cc1Cl)C(=O)Nc1ccc(Cl)cc1Cl | 3.44 | 18.1 | 2.45
CCOc1ccc(NC(=O)CN2CCN(CC(=O)Nc3ccc(Cl)c(C(F)(F)F)c3)CC2)cc1 | 11.3 | 20.8 | 7.93
Cc1cc(C(=O)CCl)c(C)n1Cc1ccco1 | 8.28 | 12.1 | 3.34
CC/C(=C(\c1ccc(O)cc1)c1ccc(OCCN(C)C)cc1)c1ccccc1 | 12.3 | 14.1 | 8.76
